biological target: T1, human EAAT3 (Homo sapiens, UniProt P43005); test: FLIPR Membrane Potential (FMP) assay, antagonist potency at human EAAT3; type: cell-based; details: HEK-293 cells stably expressing human EAAT3; L-glutamate as agonist at EC80; antagonist applied 15 min before; Kb by Cheng-Prusoff from IC50
T1 construct: expressed in transfected cells
T1 sequence (P43005 1-524): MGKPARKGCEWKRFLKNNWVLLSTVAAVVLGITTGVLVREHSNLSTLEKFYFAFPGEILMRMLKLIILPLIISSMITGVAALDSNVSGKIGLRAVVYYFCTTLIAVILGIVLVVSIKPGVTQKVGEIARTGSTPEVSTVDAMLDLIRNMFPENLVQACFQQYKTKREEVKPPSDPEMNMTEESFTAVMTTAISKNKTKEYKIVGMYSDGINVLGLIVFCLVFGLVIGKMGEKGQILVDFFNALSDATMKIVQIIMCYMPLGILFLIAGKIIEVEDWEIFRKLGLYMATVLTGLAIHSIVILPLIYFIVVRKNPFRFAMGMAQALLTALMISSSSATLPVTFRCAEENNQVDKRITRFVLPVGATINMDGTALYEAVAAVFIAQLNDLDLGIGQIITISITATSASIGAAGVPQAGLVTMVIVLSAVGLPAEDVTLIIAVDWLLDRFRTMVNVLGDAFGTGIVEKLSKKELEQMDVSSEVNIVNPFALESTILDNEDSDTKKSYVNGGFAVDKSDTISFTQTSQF
Description: The FLIPR Membrane Potential (FMP) Assay
HEK-293 cells stably expressing human EAAT3 were seeded at 55 000 cells/well in growth medium (DMEM glutamate free (Invitrogen 11960-044), 1% Pen Strep (10 ml/l GIBCO BRL No 15140-023), 10% FCS non dialysed heat inactivated, 5 mg/l puromycin) in poly-D-lysine treated 96-well black microtiter plates with clear-bottom. After 24 h, the growth medium was removed and 100 μl/well of Krebs buffer (140 mM NaCl, 4.7 mM KCl, 2.5 mM CaCl2, 1.2 mM MgCl2, 11 mM HEPES, 10 mM D-glucose, pH=7.4) added. The cells were then loaded by adding 100 μl/well FMP assay dye (FLIPR Membrane Potential assay reagent, Molecular Devices). The 96-well plates were then incubated at 37° C. for 1 h. The depolarization of the cells will cause more dye to enter in the cells, where it will bind to intracellular proteins and lipids and cause an increase in the fluorescence signal. Antagonist potency at human EAAT3 was determined by using L-glutamate as agonist at a concentration which gives 80% of the maximum response. The antagonists were applied 15 min before the application of the agonist L-glutamate. The assays were performed at room temperature and measurements done by using a Fluorometric Imaging Plate Reader (FLIPR, Molecular Devices) and filter #2. Responses were measured as peak increase in fluorescence minus basal (i.e. fluorescence without addition of L-glutamate). Kb was determined using the Cheng-Prusoff equation Kb=IC50/[1+(A/EC50)], where IC50 is the concentration of the antagonist producing 50% inhibition, A is the concentration of the agonist against which the IC50 is being determined (at EC80) and EC50 is the concentration of the agonist producing 50% […].

Structure (SMILES)	Kb [nM]
CC(C)c1nccn1-c1cc(C(=O)NC2(C)CCS(=O)(=O)C2)cc(-c2ccc(F)cc2)n1 (racemic) [Example 38, (RS)-2-(4-Fluorophenyl)-N-(3-methyl-1,1-dioxothiolan-3-yl)-6-(2-propan-2-ylimidazol-1-yl)-pyridine-4-carboxamide]	140
CC(C)c1nccn1-c1cc(C(=O)NC(C)(C)C)cc(-c2ccc(C(F)(F)F)cc2)n1 [Example 3, N-tert-Butyl-2-(2-propan-2-yl-imidazol-1-yl)-6-[4-(trifluoromethyl)-phenyl]-pyridine-4-carboxamide]	460
CC(C)(C)NC(=O)c1cc(-c2ccc(Cl)cc2)nc(-n2ccnc2C2CC2)c1 [Example 5, N-tert-Butyl-2-(4-chlorophenyl)-6-(2-cyclopropyl-imidazol-1-yl)-pyridine-4-carboxamide]	120
CC(C)(C)NC(=O)c1cc(-c2ccc(Cl)cc2)nc(-n2ccnc2)c1 [Example 9, N-tert-Butyl-2-(4-chlorophenyl)-6-imidazol-1-yl-pyridine-4-carboxamide]	600
CC(C)c1nccn1-c1cc(C(=O)NC(C)(C)C2CC2)cc(-c2ccc(Cl)cc2)n1 [Example 15, 2-(4-Chlorophenyl)-N-(2-cyclopropylpropan-2-yl)-6-(2-propan-2-yl-imidazol-1-yl)-pyridine-4-carboxamide]	150
CC(C)(NC(=O)c1cc(-c2ccc(Cl)cc2)nc(-n2ccnc2C2CC2)c1)C1CC1 [Example 16, 2-(4-Chlorophenyl)-6-(2-cyclopropyl-imidazol-1-yl)-N-(2-cyclopropyl-propan-2-yl)-pyridine-4-carboxamide]	300
CC(C)(C)c1nccn1-c1cc(C(=O)NC(C)(C)C2CC2)cc(-c2ccc(Cl)cc2)n1 [Example 17, 2-(2-tert-Butylimidazol-1-yl)-6-(4-chlorophenyl)-N-(2-cyclopropyl-propan-2-yl)-pyridine-4-carboxamide]	280

Further lines, results first:

Kb [nM]	Structure (SMILES)
140	CC(C)c1nccn1-c1cc(C(=O)NC(C)(C)C)cc(-c2ccc(Cl)cc2)n1 [Example 1, N-tert-Butyl-2-(4-chlorophenyl)-6-(2-propan-2-yl-imidazol-1-yl)-pyridine-4-carboxamide]
160	CC(C)(C)NC(=O)c1cc(-c2ccc(F)cc2)nc(-n2ccnc2C2CC2)c1 [Example 4, N-tert-Butyl-2-(2-cyclopropyl-imidazol-1-yl)-6-(4-fluorophenyl)-pyridine-4-carboxamide]
1000	CC(C)(C)NC(=O)c1cc(-c2ccc(F)cc2)nc(-n2ccnc2)c1 [Example 6, N-tert-Butyl-2-(4-fluorophenyl)-6-imidazol-1-yl-pyridine-4-carboxamide]
430	Cc1nccn1-c1cc(C(=O)NC(C)(C)C)cc(-c2ccc(F)cc2)n1 [Example 7, N-tert-Butyl-2-(4-fluorophenyl)-6-(2-methyl-imidazol-1-yl)-pyridine-4-carboxamide]
210	CCc1nccn1-c1cc(C(=O)NC(C)(C)C)cc(-c2ccc(F)cc2)n1 [Example 8, N-tert-Butyl-2-(2-ethyl-imidazol-1-yl)-6-(4-fluorophenyl)-pyridine-4-carboxamide]
300	Cc1nccn1-c1cc(C(=O)NC(C)(C)C)cc(-c2ccc(Cl)cc2)n1 [Example 10, N-tert-Butyl-2-(4-chlorophenyl)-6-(2-methyl-imidazol-1-yl)-pyridine-4-carboxamide]
250	CCc1nccn1-c1cc(C(=O)NC(C)(C)C)cc(-c2ccc(Cl)cc2)n1 [Example 11, N-tert-Butyl-2-(4-chlorophenyl)-6-(2-ethyl-imidazol-1-yl)-pyridine-4-carboxamide]
63	CC(C)(C)NC(=O)c1cc(-c2ccc(Cl)cc2)nc(-n2ccnc2C(C)(C)C)c1 [Example 12, N-tert-Butyl-2-(2-tert-butyl-imidazol-1-yl)-6-(4-chlorophenyl)-pyridine-4-carboxamide]
58	CC(C)(C)NC(=O)c1cc(-c2ccc(F)cc2)nc(-n2ccnc2C(C)(C)C)c1 [Example 13, N-tert-Butyl-2-(2-tert-butyl-imidazol-1-yl)-6-(4-fluorophenyl)-pyridine-4-carboxamide]
